Laboratory results published in the NIST ThermoML archive (doi:10.1016/j.jct.2008.11.012).
Numbers after ± are expanded uncertainties.

Assay: xn = mol fraction of the nth substance listed
Conditions: 101 kPa, Liquid; for viscosity: Concentric cylinders viscometry; for mass density: Vibrating tube method

NCCNCCN [di(2-aminoethyl)amine] + O
Conditions	mass density [kg/m3]	viscosity [mPa·s]
293.15 K, x1 = 0.0095	1001.5 ± 1	1.31 ± 0.053
293.15 K, x1 = 0.0299	1004.2 ± 1	2.076 ± 0.084
293.15 K, x1 = 0.0565	1011.5 ± 1	4.009 ± 0.16
293.15 K, x1 = 0.0696	1014.5 ± 1	5.418 ± 0.22
293.15 K, x1 = 0.1043	1023.8 ± 1	11.63 ± 0.47
293.15 K, x1 = 0.125	1026.5 ± 1	17.94 ± 0.73
293.15 K, x1 = 0.1591	1030.7 ± 1	31.07 ± 1.3
293.15 K, x1 = 0.2076	1029.4 ± 1	50.68 ± 2
293.15 K, x1 = 0.2449	1027.5 ± 1	59.62 ± 2.4
293.15 K, x1 = 0.3099	1019.1 ± 1	59.42 ± 2.4
293.15 K, x1 = 0.3438	1014.1 ± 1	55.52 ± 2.2
293.15 K, x1 = 0.4112	1004.1 ± 1	43.08 ± 1.7
293.15 K, x1 = 0.4974	992.8 ± 1	30.13 ± 1.2
293.15 K, x1 = 0.6111	979 ± 1	19.46 ± 0.79
293.15 K, x1 = 0.6988	971.8 ± 1	15.12 ± 0.61
293.15 K, x1 = 0.8073	963.4 ± 1	10.61 ± 0.43
293.15 K, x1 = 0.8954	957.5 ± 1	8.515 ± 0.34
293.15 K, x1 = 1	951 ± 1	7.038 ± 0.28
303.15 K, x1 = 0.0095	998.6 ± 1	1.017 ± 0.042
303.15 K, x1 = 0.0299	1000.7 ± 1	1.557 ± 0.063
303.15 K, x1 = 0.0565	1007.1 ± 1	2.841 ± 0.12
303.15 K, x1 = 0.0696	1009.6 ± 1	3.736 ± 0.15
303.15 K, x1 = 0.1043	1017.1 ± 1	7.329 ± 0.3
303.15 K, x1 = 0.125	1019.8 ± 1	10.57 ± 0.43
303.15 K, x1 = 0.1591	1023 ± 1	16.94 ± 0.69
303.15 K, x1 = 0.2076	1021.4 ± 1	25.63 ± 1
303.15 K, x1 = 0.2449	1018.6 ± 1	29.47 ± 1.2
303.15 K, x1 = 0.3099	1010.2 ± 1	29.55 ± 1.2
303.15 K, x1 = 0.3438	1005.7 ± 1	27.97 ± 1.1
303.15 K, x1 = 0.4112	995 ± 1	22.7 ± 0.92
303.15 K, x1 = 0.4974	983.7 ± 1	16.77 ± 0.68
303.15 K, x1 = 0.6111	970.6 ± 1	11.54 ± 0.47
303.15 K, x1 = 0.6988	962.7 ± 1	9.116 ± 0.37
303.15 K, x1 = 0.8073	954.3 ± 1	6.899 ± 0.28
303.15 K, x1 = 0.8954	948.4 ± 1	5.713 ± 0.23
303.15 K, x1 = 1	942.3 ± 1	4.804 ± 0.19
313.15 K, x1 = 0.0095	994.9 ± 1	0.8263 ± 0.034
313.15 K, x1 = 0.0299	996.7 ± 1	1.223 ± 0.05
313.15 K, x1 = 0.0565	1002.2 ± 1	2.101 ± 0.085
313.15 K, x1 = 0.0696	1004.3 ± 1	2.684 ± 0.11
313.15 K, x1 = 0.1043	1010.7 ± 1	4.877 ± 0.2
313.15 K, x1 = 0.125	1012.9 ± 1	6.69 ± 0.27
313.15 K, x1 = 0.1591	1015.4 ± 1	10.13 ± 0.41
313.15 K, x1 = 0.2076	1013.2 ± 1	14.34 ± 0.58
313.15 K, x1 = 0.2449	1009.9 ± 1	16.2 ± 0.66
313.15 K, x1 = 0.3099	1001.5 ± 1	16.32 ± 0.66
313.15 K, x1 = 0.3438	997.1 ± 1	15.61 ± 0.63
313.15 K, x1 = 0.4112	986.4 ± 1	12.99 ± 0.53
313.15 K, x1 = 0.4974	975.1 ± 1	10.17 ± 0.41
313.15 K, x1 = 0.6111	962.1 ± 1	7.375 ± 0.3
313.15 K, x1 = 0.6988	954.2 ± 1	5.944 ± 0.24
313.15 K, x1 = 0.8073	947.3 ± 1	4.741 ± 0.19
313.15 K, x1 = 0.8954	939.8 ± 1	4.017 ± 0.16
313.15 K, x1 = 1	933.8 ± 1	3.4 ± 0.14
323.15 K, x1 = 0.0095	990.5 ± 1	0.6854 ± 0.028
323.15 K, x1 = 0.0299	991.7 ± 1	0.9871 ± 0.04
323.15 K, x1 = 0.0565	996.8 ± 1	1.615 ± 0.066
323.15 K, x1 = 0.0696	998.6 ± 1	2.012 ± 0.082
323.15 K, x1 = 0.1043	1004.2 ± 1	3.423 ± 0.14
323.15 K, x1 = 0.125	1005.7 ± 1	4.514 ± 0.18
323.15 K, x1 = 0.1591	1007.9 ± 1	6.505 ± 0.26
323.15 K, x1 = 0.2076	1004.8 ± 1	8.733 ± 0.35
323.15 K, x1 = 0.2449	1001.9 ± 1	9.728 ± 0.39
323.15 K, x1 = 0.3099	993.1 ± 1	9.836 ± 0.4
323.15 K, x1 = 0.3438	988.4 ± 1	9.492 ± 0.38
323.15 K, x1 = 0.4112	978 ± 1	8.14 ± 0.33
323.15 K, x1 = 0.4974	966.8 ± 1	6.622 ± 0.27
323.15 K, x1 = 0.6111	953.7 ± 1	5.032 ± 0.2
323.15 K, x1 = 0.6988	945.9 ± 1	4.175 ± 0.17
323.15 K, x1 = 0.8073	939.1 ± 1	3.445 ± 0.14
323.15 K, x1 = 0.8954	931.5 ± 1	2.976 ± 0.12
323.15 K, x1 = 1	925.5 ± 1	2.695 ± 0.11
333.15 K, x1 = 0.0095	985.5 ± 1	0.5792 ± 0.024
333.15 K, x1 = 0.0299	986.5 ± 1	0.8166 ± 0.033
333.15 K, x1 = 0.0565	991 ± 1	1.283 ± 0.052
333.15 K, x1 = 0.0696	992.4 ± 1	1.562 ± 0.064
333.15 K, x1 = 0.1043	997.2 ± 1	2.525 ± 0.1
333.15 K, x1 = 0.125	998.2 ± 1	3.206 ± 0.13
333.15 K, x1 = 0.1591	999.9 ± 1	4.43 ± 0.18
333.15 K, x1 = 0.2076	996.3 ± 1	5.698 ± 0.23
333.15 K, x1 = 0.2449	993.1 ± 1	6.271 ± 0.25
333.15 K, x1 = 0.3099	984.1 ± 1	6.366 ± 0.26
333.15 K, x1 = 0.3438	979.6 ± 1	6.191 ± 0.25
333.15 K, x1 = 0.4112	969.2 ± 1	5.44 ± 0.22
333.15 K, x1 = 0.4974	956.8 ± 1	4.572 ± 0.19
333.15 K, x1 = 0.6111	945.1 ± 1	3.62 ± 0.15
333.15 K, x1 = 0.6988	937.3 ± 1	3.083 ± 0.12
333.15 K, x1 = 0.8073	929.1 ± 1	2.618 ± 0.11
333.15 K, x1 = 0.8954	922.9 ± 1	2.301 ± 0.093
333.15 K, x1 = 1	917 ± 1	2.109 ± 0.086
343.15 K, x1 = 0.0095	980 ± 1	0.4978 ± 0.021
343.15 K, x1 = 0.0299	980.8 ± 1	0.6873 ± 0.028
343.15 K, x1 = 0.0565	984.7 ± 1	1.044 ± 0.043
343.15 K, x1 = 0.0696	985.8 ± 1	1.244 ± 0.051
343.15 K, x1 = 0.1043	990.1 ± 1	1.919 ± 0.078
343.15 K, x1 = 0.125	990.5 ± 1	2.376 ± 0.096
343.15 K, x1 = 0.1591	992.3 ± 1	3.174 ± 0.13
343.15 K, x1 = 0.2076	987.6 ± 1	3.938 ± 0.16
343.15 K, x1 = 0.2449	984.2 ± 1	4.293 ± 0.17
343.15 K, x1 = 0.3099	975.4 ± 1	4.372 ± 0.18
343.15 K, x1 = 0.3438	970.7 ± 1	4.277 ± 0.17
343.15 K, x1 = 0.4112	960.5 ± 1	3.846 ± 0.16
343.15 K, x1 = 0.4974	949.5 ± 1	3.308 ± 0.13
343.15 K, x1 = 0.6111	936.5 ± 1	2.721 ± 0.11
343.15 K, x1 = 0.6988	929.1 ± 1	2.366 ± 0.096
343.15 K, x1 = 0.8073	920.7 ± 1	2.067 ± 0.084
343.15 K, x1 = 0.8954	914.6 ± 1	1.833 ± 0.074
343.15 K, x1 = 1	908.9 ± 1	1.703 ± 0.069
353.15 K, x1 = 0.0095	973.8 ± 1	0.4312 ± 0.018
353.15 K, x1 = 0.0299	974.6 ± 1	0.5864 ± 0.024
353.15 K, x1 = 0.0565	978.1 ± 1	0.8677 ± 0.036
353.15 K, x1 = 0.0696	978.9 ± 1	1.017 ± 0.042
353.15 K, x1 = 0.1043	982.6 ± 1	1.507 ± 0.061
353.15 K, x1 = 0.125	982.3 ± 1	1.824 ± 0.074
353.15 K, x1 = 0.1591	982.9 ± 1	2.373 ± 0.096
353.15 K, x1 = 0.2076	978.5 ± 1	2.852 ± 0.12
353.15 K, x1 = 0.2449	975.1 ± 1	3.086 ± 0.12
353.15 K, x1 = 0.3099	966.3 ± 1	3.151 ± 0.13
353.15 K, x1 = 0.3438	961.7 ± 1	3.1 ± 0.13
353.15 K, x1 = 0.4112	951.7 ± 1	2.841 ± 0.12
353.15 K, x1 = 0.4974	940.8 ± 1	2.502 ± 0.1
353.15 K, x1 = 0.6111	927.8 ± 1	2.118 ± 0.086
353.15 K, x1 = 0.6988	920.4 ± 1	1.876 ± 0.076
353.15 K, x1 = 0.8073	912.2 ± 1	1.677 ± 0.068
353.15 K, x1 = 0.8954	906.1 ± 1	1.504 ± 0.061
353.15 K, x1 = 1	900.4 ± 1	1.409 ± 0.057
363.15 K, x1 = 0.0095	967.3 ± 1	0.3693 ± 0.016
363.15 K, x1 = 0.0299	967.7 ± 1	0.4995 ± 0.021
363.15 K, x1 = 0.0565	970.9 ± 1	0.7364 ± 0.03
363.15 K, x1 = 0.0696	971.7 ± 1	0.8452 ± 0.035
363.15 K, x1 = 0.1043	974.7 ± 1	1.213 ± 0.049
363.15 K, x1 = 0.125	974.2 ± 1	1.439 ± 0.058
363.15 K, x1 = 0.1591	974.2 ± 1	1.84 ± 0.075
363.15 K, x1 = 0.2076	969.5 ± 1	2.148 ± 0.087
363.15 K, x1 = 0.2449	966.1 ± 1	2.311 ± 0.094
363.15 K, x1 = 0.3099	957 ± 1	2.365 ± 0.096
363.15 K, x1 = 0.3438	952.6 ± 1	2.337 ± 0.095
363.15 K, x1 = 0.4112	942.7 ± 1	2.176 ± 0.088
363.15 K, x1 = 0.4974	931.9 ± 1	1.955 ± 0.079
363.15 K, x1 = 0.6111	919.1 ± 1	1.696 ± 0.069
363.15 K, x1 = 0.6988	911.8 ± 1	1.526 ± 0.062
363.15 K, x1 = 0.8073	903.6 ± 1	1.387 ± 0.056
363.15 K, x1 = 0.8954	897.5 ± 1	1.26 ± 0.051
363.15 K, x1 = 1	891.9 ± 1	1.19 ± 0.049
